From patent EP0327365B1, “Improvements in or relating to modified haptens useful as imaging and therapeutic agents” (HYBRITECH INCORPORATED, priority 1988, dated 1989)

Columns and labels:
[1] = test system: T-380 tumors; test: Hapten biodistribution, premix protocol with bifunctional antibody ECH037.2; format: in vivo, nude mice; parameters: TOTAL RECOV: unit not given here; settings: for % DOSE PER GRAM, KIDNEY / % DOSE PER GRAM, LIVER / % DOSE PER GRAM, TUMOR / FECES / TOTAL RECOV / URINE / % DOSE PER GRAM, BLOOD / TUMOR/BLOOD: premix with 20 µg ECH037.2; for % DOSE PER GRAM, BLOOD: 111In-labeled hapten i.v.; for TUMOR/BLOOD: ratio; for Percent Injected Dose in Feces: premix protocol (Table VI); for %Dose per Gram, Blood / %Dose per Gram, Tumor: premix with 20 µg ECH037.2 (Table VIII)
Method: Two protocols were used for examining the biodistribution of the derivatized haptens in the presence of the bifunctional antibody ECH037.2. In a premix protocol, ECH037.2 and the derivatized hapten were combined prior to injection in the animals. In the prelocalization protocol, ECH037.2 was injected into the animals, and the antibody was allowed to prelocalize for 24 hours prior to injection of the radiolabeled hapten.
Biodistribution studies were performed in nude mice carrying subcutaneous implants of the human colon carcinoma cell line T-380 which expresses the carcinoembryonic antigen (CEA) recognized by ECH037.2. Briefly, Balb/C Nu/Nu mice were injected subcutaneously with a minced preparation of T-380 tumor implants and maintained for approximately two weeks, or until the tumor implant had grown to a size of approximately 0.5 grams as described by Hagan, P.L., et al. J. Nuc. Med., 26 1418-1423 (1985). Mice were kept in a sterile environment to prevent complications due to bacterial or viral infections. Biodistributions were performed as described by Halpern, S., et al., Cancer Res. 43, 5347-5355 (1983). Briefly, the radiolabeled haptens were injected intravenously in […], and the pharmacokinetics were evaluated at several time points post-injection. At these times, mice were sacrificed and weighed. Organs were removed, their weight recorded, and each organ was then washed in sterile PBS, pH 7.0, and fixed in formalin solution. Samples of blood, urine and feces also were collected and their weight similarly recorded. The organs, or a portion thereof, were transferred to clean tubes and their radioactive content was determined in a well-type gamma-counter.
Relative radioactive content of each organ was expressed as a percentage of injected dose per organ.
To indium-label the haptens of the invention 10 »l of 0.1 mM ligand was combined with X »l of ¹¹¹InCl₃ (in 50 mM HCl) and (x+10) »l of 0.26 M ammonium citrate, pH 6.0. X is calculated by the following equation: X = (200 »Ci)/(A »Ci/»l) [formula] where A is the specific activity of the ¹¹¹In.
The labeling was done in an acid-washed microfuge tube. After combining all of the components above, the solution was vortexed and allowed to stand at room temperature for 15 minutes.
Incorporation of the ¹¹¹In into the chelating agent was determined by TLC on silica in a methanol/aqueous ammonium acetate solvent system as described by Meares, et al. (Anal. Biochem., 142, 68-75 (1984)). Greater than 95% incorporation of the radioactivity into the chelate was required for the sample to be submitted for a biodistribution assay.
Prior to injection the ¹¹¹In-labeled hapten was diluted into freshly prepared isotonic sodium bicarbonate (1.39% w/v) containing 1 mg/ml normal human serum albumin (Buminate, 25% solution, Travenol Laboratories, Glendale, California) to which the bifunctional antibody had been added. The final composition of the solution was 0.2 mg/ml ECH037.2, 0.5 »M chelate, 0.1 »Ci/»l ¹¹¹In, all in a volume of 2.0 ml. For the biodistribution studies, 100 »l of the solution was injected into the tail vein of each animal.

[2] = test system: monoclonal antibody CHA255; test: Determination of hapten-antibody dissociation rates; format: binding, BALB/c mice; settings: 22°C; indium complex of hapten from CHA255 after 100 fold excess of indium-115 loaded hapten
Method: Hapten-antibody dissociation rates were determined using monoclonal antibody CHA255, prepared as described in Example 2A, by measuring the quantity of ¹¹¹In³⁺ chelate released from the antibody hapten complex as a function of time after addition of a 100 fold excess (over antibody binding sites) of indium-115 loaded hapten. Thus, for each hapten, a 700 »l solution was prepared containing: antibody at a concentration of 160 nM; indium loaded hapten, trace labeled with ¹¹¹In (total concentration = 160 nM); normal human serum albumin at a total concentration of 1.5 mg/mL; and isotonic phosphate buffered saline, (10 mM PO₄²⁻, 150 mM NaCl, pH 7.2). Indium-115 loaded hapten was added to a final Concentration of […]. Reactions were stirred by placing the sample containers ir a rack mounted on a vortexer head.
At various times after addition of the excess hapten, […] portions of the reaction solutions were transferred to Centrifree tubes (Amicon Corperation, Danvers, Massachusetts) and centrifuged at 1500xg for eight to ten minutes. The reaction time was taken to be the time between addition of the excess hapten and the time the centrifuge reached the desired velocity. Six timepoints, each in duplicate, were obtained over a range of about two reaction half-lives for each rate constant determination. A 200 »l portion from each centrifuged and uncentrifuged solution was then counted for ¹¹¹In. The relative concentration of free hapten was taken to be the ratio of counts in the centrifuged solution to the uncentrifuged solution at each timepoint. Times were recorded to the nearest tenth of a minute.
Room temperature rate constants were measured without the aid of a constant temperature bath. The ambient temperature remained at 22°±1 C.
Rate constants and standard deviations were obtained from a plot of the logarithm of relative complex concentration vs. time. Data were analyzed using the linear regression module of the RS/1 Program (BBN Software Products Corporation, Cambridge, Massachusetts).
Control samples were included in each experiment to determine: A) that the initial condition of 100% of labeled hapten bound to antibody was met, and B) that in the absence of antibody, 100% of counts were able to penetrate the Centrifree membrane. […]

Compound | % DOSE PER GRAM, KIDNEY ([1]; 24 hours) [% DOSE PER GRAM] | % DOSE PER GRAM, LIVER ([1]; 24 hours) [% DOSE PER GRAM] | % DOSE PER GRAM, TUMOR ([1]; 24 hours) [% DOSE PER GRAM] | FECES ([1]; 24 hours) | TOTAL RECOV ([1]; 24 hours) | URINE ([1]; 24 hours) | % DOSE PER GRAM, BLOOD ([1]; 24 hours) [% DOSE PER GRAM] | TUMOR/BLOOD ([1]; 24 hours) | Percent Injected Dose in Feces ([1]; 24 hrs.) [Percent Injected Dose] | % DOSE PER GRAM, KIDNEY ([1]; 48 hours) [% DOSE PER GRAM] | % DOSE PER GRAM, LIVER ([1]; 48 hours) [% DOSE PER GRAM] | % DOSE PER GRAM, TUMOR ([1]; 48 hours) [% DOSE PER GRAM] | FECES ([1]; 48 hours) | TOTAL RECOV ([1]; 48 hours) | URINE ([1]; 48 hours) | % DOSE PER GRAM, BLOOD ([1]; 48 hours) [% DOSE PER GRAM] | TUMOR/BLOOD ([1]; 48 hours) | Percent Injected Dose in Feces ([1]; 48 hrs.) [Percent Injected Dose] | t1/2, Dissociation Half-Lives [2] [h] | further results
O=C(O)CCNC(=S)Nc1ccc(CC(CN(CC(=O)O)CC(=O)O)N(CC(=O)O)CC(=O)O)cc1 (stereo not drawn) [PATUBE] | 2.2 | 3.3 | 10.6 | 5.0% of total injected dose | 53.7 | 23.6% of total injected dose | 12.2 | 0.87 | 5.0 | 1.7 | 2.4 | 9.8 | 8.9% of total injected dose | 61.7 | 36.0% of total injected dose | 7.6 | 1.29 | 8.9 | 1.46 | –
O=C(O)CN(CC(=O)O)CC(Cc1ccc(NC(=S)Nc2ccccc2)cc1)N(CC(=O)O)CC(=O)O (stereo not drawn) [PHTUBE] | 2.9 | 3.6 | 12.4 | 13.9% of total injected dose | 57.2 | 20.3% of total injected dose | 8.9 | 1.39 | 13.9 | 1.7 | 2.3 | 10.6 | 21.7% of total injected dose | 62.4 | 24.5% of total injected dose | 5.4 | 1.96 | 27.1 | 1.25 | –
NC(=S)Nc1ccc(CC(CN(CC(=O)O)CC(=O)O)N(CC(=O)O)CC(=O)O)cc1 (stereo not drawn) [TUBE] | 2.4 | 4.0 | 8.5 | 4.1% of total injected dose | 48.2 | 23.7% of total injected dose | 8.0 | 1.06 | 4.1 | 1.1 | 1.6 | 6.5 | 9.8% of total injected dose | 69.5 | 48.8% of total injected dose | 3.8 | 1.71 | 9.9 | 1.4 | %Dose per Gram, Blood ([1]; 24 hrs. post-injection): 8.0 %Dose per Gram; %Dose per Gram, Tumor ([1]; 24 hrs. post-injection): 8.5 %Dose per Gram; %Dose per Gram, Blood ([1]; 48 hrs. post-injection): 3.8 %Dose per Gram; %Dose per Gram, Tumor ([1]; 48 hrs. post-injection): 6.5 %Dose per Gram; %Dose per Gram, Blood ([1]; 72 hrs. post-injection): 1.7 %Dose per Gram; %Dose per Gram, Tumor ([1]; 72 hrs. post-injection): 5.3 %Dose per Gram
